Source: publication PMC10004267, “Resveratrol, a New Allosteric Effector of Hemoglobin, Enhances Oxygen Supply Efficiency and Improves Adaption to Acute Severe Hypoxia” (Molecules, 2023)

Experiments:
[1] = target: T1, hemoglobin of adult (HbA) (Homo sapiens, UniProt P68871); test: SPR (OpenSPR, HbA immobilized), control compound; type: binding
T1 construct: gene HBB; HbA tetramer purified from human whole blood; with hemoglobin subunit alpha (HBA1)

[2] = target: T2, hemoglobin of adult (HbA) (Homo sapiens, UniProt P68871+P69905); test: SPR (OpenSPR, HbA immobilized on COOH chip, one-to-one model); supported by thermal shift (Tm1) and P50 shift; type: binding
T2 construct: gene HBA1; HbA tetramer purified from human whole blood; with hemoglobin subunit beta (HBB)
T2 sequence (P69905 2-142): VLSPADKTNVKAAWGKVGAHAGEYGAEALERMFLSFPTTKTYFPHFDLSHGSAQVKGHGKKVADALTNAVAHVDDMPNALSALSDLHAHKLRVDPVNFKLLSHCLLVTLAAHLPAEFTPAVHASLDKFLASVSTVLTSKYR
T2 sequence (P68871 2-147): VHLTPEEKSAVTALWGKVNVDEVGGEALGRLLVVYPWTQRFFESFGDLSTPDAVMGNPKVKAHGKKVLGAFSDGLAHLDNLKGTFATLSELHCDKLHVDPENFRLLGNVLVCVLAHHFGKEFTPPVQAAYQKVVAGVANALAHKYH

T1 sequence (P68871 2-147): as above
T1 sequence (P69905 2-142 partner): as the sequence (P69905 2-142) above

For `O=C(O)C(COP(=O)(O)O)OP(=O)(O)O` (centres unmarked) [2,3-DPG, 2,3-Diphosphoglycerate], the Kd [1] was 462 µM.

`Oc1ccc(/C=C/c2cc(O)cc(O)c2)cc1` [RSV, 3,4′,5-trihydroxy-trans-stilbene] showed a Kd [2] of 48.6 µM.
